Data: PubChem BioAssay (NCI)
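Cells were grown in 96-well plates and exposed to each compound for 48 hours at five concentrations; endpoints were interpolated linearly between bracketing concentrations, or set to the highest concentration if not reached. The concentration for 50% growth inhibition is given as GI50. TGI denotes the concentration required for complete inhibition of growth.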

Experiments:
Assay in all cases: NCI-60 cell line screen, 48 h
[1] = system: TK-10 renal
[2] = system: SW-620 colon
[3] = system: U251 CNS
[4] = system: CAKI-1 renal
[5] = system: NCI-H226 lung
[6] = system: COLO 205 colon
[7] = system: HCT-15 colon
[8] = system: MALME-3M melanoma
[9] = system: SK-OV-3 ovarian
[10] = system: SNB-19 CNS
[11] = system: MDA-MB-231 breast
[12] = system: HL-60(TB) leukemia
[13] = system: MCF7 breast
[14] = system: UO-31 renal
[15] = system: SF-268 CNS
[16] = system: BT-549 breast
[17] = system: CCRF-CEM leukemia
[18] = system: SR leukemia
[19] = system: HS 578T breast
[20] = system: MOLT-4 leukemia
[21] = system: SK-MEL-5 melanoma
[22] = system: UACC-257 melanoma
[23] = system: A498 renal
[24] = system: HOP-62 NSCLC
[25] = system: HCC-2998 colon
[26] = system: PC-3 prostate
[27] = system: A549 NSCLC
[28] = system: RXF 393 renal
[29] = system: SNB-75 CNS
[30] = system: MDA-MB-435
[31] = system: NCI/ADR-RES ovarian
[32] = system: UACC-62 melanoma
[33] = system: OVCAR-4 ovarian
[34] = system: NCI-H522 lung
[35] = system: OVCAR-5 ovarian
[36] = system: HOP-92 NSCLC
[37] = system: HCT-116 colon
[38] = system: NCI-H460 lung
[39] = system: SK-MEL-2 melanoma
[40] = system: 786-0 renal
[41] = system: OVCAR-3 ovarian
[42] = system: HT29 colon
[43] = system: ACHN renal
[44] = system: SN12C renal
[45] = system: M14 melanoma
[46] = system: EKVX NSCLC
[47] = system: KM12 colon
[48] = system: SF-539 CNS
[49] = system: SF-295 CNS
[50] = system: DU-145 prostate
[51] = system: RPMI-8226 leukemia
[52] = system: SK-MEL-28 melanoma
[53] = system: K-562 leukemia
[54] = system: T-47D breast
[55] = system: OVCAR-8 ovarian
[56] = system: IGROV1 ovarian

Compound `C=C(C)[C@@H]1CC[C@]2(COC)CC[C@]3(C)[C@H](CC[C@@H]4[C@@]5(C)CCCNC(C)(C)[C@@H]5CC[C@]43C)[C@@H]12` has a GI50 [1] of 1910 nM, a TGI [1] of 3520 nM and a GI50 [2] of 1770 nM. For the same compound, the TGI [2] was 3710 nM, the GI50 [3] was 1550 nM and the TGI [3] was 3180 nM. The GI50 [4] was 1590 nM, the TGI [4] was 3070 nM and the GI50 [5] was 1930 nM. The TGI [5] was 3930 nM, the GI50 [6] was 1490 nM and the TGI [6] was 3220 nM. It also gave a GI50 [7] of 1430 nM, a TGI [7] of 2920 nM and a GI50 [8] of 1420 nM. It also gave a TGI [8] of 3070 nM, a GI50 [9] of 1790 nM and a TGI [9] of 3320 nM. It also gave a GI50 [10] of 1710 nM, a TGI [10] of 3130 nM and a GI50 [11] of 1800 nM. It also gave a TGI [11] of 3380 nM, a GI50 [12] of 1330 nM and a TGI [12] of 3510 nM. For the same compound, the GI50 [13] was 301 nM, the TGI [13] was 2240 nM and the GI50 [14] was 1450 nM. It also gave a TGI [14] of 2780 nM, a GI50 [15] of 1950 nM and a TGI [15] of 3850 nM. For the same compound, the GI50 [16] was 1750 nM, the TGI [16] was 3210 nM and the GI50 [17] was 1240 nM. It also gave a TGI [17] of 2990 nM, a GI50 [18] of 481 nM and a TGI [18] of 2510 nM. The GI50 [19] was 2530 nM, the TGI [19] was 5570 nM and the GI50 [20] was 1250 nM. For the same compound, the TGI [20] was 3490 nM, the GI50 [21] was 1590 nM and the TGI [21] was 3000 nM. The GI50 [22] was 1930 nM, the TGI [22] was 3760 nM and the GI50 [23] was 1660 nM. It also gave a TGI [23] of 3110 nM, a GI50 [24] of 1950 nM and a TGI [24] of 3900 nM. It also gave a GI50 [25] of 1260 nM, a TGI [25] of 2670 nM and a GI50 [26] of 1260 nM. It also gave a TGI [26] of 2520 nM, a GI50 [27] of 1600 nM and a TGI [27] of 3160 nM. The GI50 [28] was 1550 nM, the TGI [28] was 2940 nM and the GI50 [29] was 1750 nM. For the same compound, the TGI [29] was 3920 nM, the GI50 [30] was 1610 nM and the TGI [30] was 3090 nM. For the same compound, the GI50 [31] was 1680 nM, the TGI [31] was 3400 nM and the GI50 [32] was 1680 nM. The TGI [32] was 3110 nM, the GI50 [33] was 1540 nM and the TGI [33] was 3000 nM. It also gave a GI50 [34] of 1730 nM, a TGI [34] of 3420 nM and a GI50 [35] of 1660 nM. It also gave a TGI [35] of 3110 nM, a GI50 [36] of 1150 nM and a TGI [36] of 2470 nM. It also gave a GI50 [37] of 1130 nM, a TGI [37] of 2590 nM and a GI50 [38] of 1640 nM. The TGI [38] was 3500 nM, the GI50 [39] was 1840 nM and the TGI [39] was 3520 nM. The GI50 [40] was 1750 nM, the TGI [40] was 3480 nM and the GI50 [41] was 1900 nM. For the same compound, the TGI [41] was 3730 nM, the GI50 [42] was 562 nM and the TGI [42] was 2090 nM. For the same compound, the GI50 [43] was 1690 nM, the TGI [43] was 3080 nM and the GI50 [44] was 1570 nM. It also gave a TGI [44] of 3090 nM, a GI50 [45] of 1630 nM and a TGI [45] of 3340 nM. The GI50 [46] was 1630 nM, the TGI [46] was 3140 nM and the GI50 [47] was 1820 nM. The TGI [47] was 3650 nM, the GI50 [48] was 1570 nM and the TGI [48] was 3020 nM. The GI50 [49] was 1780 nM, the TGI [49] was 3240 nM and the GI50 [50] was 1770 nM. It also gave a TGI [50] of 3210 nM, a GI50 [51] of 1170 nM and a TGI [51] of 3430 nM. The GI50 [52] was 1620 nM, the TGI [52] was 2990 nM and the GI50 [53] was 323 nM. For the same compound, the TGI [53] was 1660 nM, the GI50 [54] was 1180 nM and the TGI [54] was 2990 nM. For the same compound, the GI50 [55] was 1910 nM, the TGI [55] was 4000 nM and the GI50 [56] was 1560 nM. It also gave a TGI [56] of 3010 nM.
